≈ marks a conversion by molar mass, not a printed value. Where two headings read alike, the source gives them in different places.
Experiments:
Assay in all cases: In vitro MIC, dilution of a liquid medium
Type in all cases: cell-based
[1] = tested on: Klebsiella pneumoniae 2 536 Resistant Gentamicine; conditions: 37° C., read-out: minimum inhibiting concentration (MIC)
Description: (§1) The method used was a dilution of a liquid medium where a series of tubes received the same quantity of a sterile nutritive media and increasing doses of the test compounds were placed therein. Then each tube was seeded with a bacterial strain and was incubated for 24 or 48 hours at 37° C. in an oven. The increasing inhibition was determined by transillumination to determine the minimum inhibiting concentration (MIC in μg/ml) and the results are reported in the following Tables.

[2] = tested on: Escherichia Coli Exp. TO26 B6; conditions: 37° C., read-out: minimum inhibiting concentration (MIC)
Description: as §1

[3] = tested on: Klebsiella pneumoniae Exp. 52 145; conditions: read-out: minimum inhibiting concentration (MIC)
Description: as §1

[4] = tested on: Enterobacter cloacae 681; conditions: 37° C., read-out: minimum inhibiting concentration (MIC)
Description: as §1

[5] = tested on: Proteus vulgaris (indol +) A 232; conditions: read-out: minimum inhibiting concentration (MIC)
Description: as §1

[6] = tested on: Salmonella typhimurium 420; conditions: Salmonella enterica, read-out: minimum inhibiting concentration (MIC)
Description: as §1

[7] = tested on: Staphylococcus aureus UC 1 128 Penicillin-resistant; conditions: 37° C., read-out: minimum inhibiting concentration (MIC)
Description: as §1

[8] = tested on: Streptococcus faecalis 99 F 74; conditions: Enterococcus faecalis, 99F74, 37° C., read-out: minimum inhibiting concentration (MIC)
Description: as §1

[9] = tested on: Escherichia Coli Sensitive Tetracycline ATCC 9 637; conditions: read-out: minimum inhibiting concentration (MIC)
Description: as §1

[10] = tested on: Streptococcus faecalis 5 432; conditions: Enterococcus faecalis, 5432, 37° C., read-out: minimum inhibiting concentration (MIC)
Description: as §1

[11] = tested on: Staphylococcus aureus exp. n° 54 146; conditions: 37° C., read-out: minimum inhibiting concentration (MIC)
Description: as §1

[12] = tested on: Providencia Du 48; conditions: 37° C., read-out: minimum inhibiting concentration (MIC)
Description: as §1

[13] = tested on: Bacillus subtilis ATCC 6 633; conditions: read-out: minimum inhibiting concentration (MIC)
Description: as §1

[14] = tested on: Streptococcus pyogenes A 561; conditions: read-out: minimum inhibiting concentration (MIC)
Description: as §1

[15] = tested on: Serratia Resistant Gentamicine 2 532; conditions: 37° C., read-out: minimum inhibiting concentration (MIC)
Description: as §1

[16] = tested on: Escherichia Coli Resistant Tetracycline ATCC 11 303; conditions: read-out: minimum inhibiting concentration (MIC)
Description: as §1

[17] = tested on: Staphylococcus aureus ATCC 6 538 Penicillin-Sensitive; conditions: 37° C., read-out: minimum inhibiting concentration (MIC)
Description: as §1

[18] = tested on: Escherichia Coli Resistant Gentamicine, Tobramycine R 55 123 D; conditions: read-out: minimum inhibiting concentration (MIC)
Description: as §1

[19] = tested on: Proteus mirabilis (indol -) A 235; conditions: 37° C., read-out: minimum inhibiting concentration (MIC)
Description: as §1

Row | SMILES | MIC ([1]; 24 H) | MIC ([1]; 48 H) | MIC ([2]; 24 H) | MIC ([2]; 48 H) | MIC ([3]; EXP.52145, 48 H, 37° C.) | MIC ([4]; 24 H) | MIC ([4]; 48 H) | MIC ([7]; UC1, 24 H) | MIC ([7]; UC1, 48 H) | MIC ([8]; 24 H) | MIC ([8]; 48 H) | MIC ([10]; 24 H) | MIC ([10]; 48 H) | MIC ([11]; 24 H) | MIC ([11]; 48 H) | MIC ([12]; DU48, 24 H) | MIC ([12]; DU48, 48 H) | MIC ([13]; ATCC6, 48 H, 37° C.) | MIC ([14]; A561, 24 H, 37° C.) | MIC ([15]; 24 H) | further results
1 | CC(=O)OCC1=C(C(=O)O)N2C(=O)C(NC(=O)/C(=N\OC(C)(C)C(=O)O)c3csc(N)n3)[C@H]2SC1 (stereo partly shown) [Example 14, disodium 7-[2-(2-amino-4-thiazolyl)-2-(1-carboxy-1-methylethoxyimino)-acetamido]-3-acetoxymethyl-ceph-3-eme-4-carboxylate] | 1 µg/mL | 1 µg/mL | 0.5 µg/mL | 0.5 µg/mL | 1 µg/mL | 40 µg/mL | > 40 µg/mL | 20 µg/mL | 40 µg/mL | > 40 µg/mL | > 40 µg/mL | > 40 µg/mL | > 40 µg/mL | 20 µg/mL | > 40 µg/mL | 2 µg/mL | 3 µg/mL | > 40 µg/mL | 1 µg/mL | 1 µg/mL | MIC ([3]; EXP.52145, 24 H, 37° C.): 1 µg/mL; MIC ([5]; 24 H, 37° C.): 0.1 µg/mL; MIC ([5]; 48 H, 37° C.): 3 µg/mL; MIC ([6]; 24 H, 37° C.): 1 µg/mL; MIC ([6]; 48 H, 37° C.): 1 µg/mL; MIC ([9]; ATCC9, 24 h): 0.5 µg/mL; MIC ([9]; ATCC9, 48 h): 0.5 µg/mL; MIC ([13]; ATCC6, 24 H, 37° C.): 10 µg/mL; MIC ([14]; A561, 48 H, 37° C.): 1 µg/mL; MIC ([15]; 48 H): 1 µg/mL; MIC ([16]; ATCC11, 24 H, 37° C.): 0.2 µg/mL; MIC ([16]; ATCC11, 48 H, 37° C.): 0.2 µg/mL; MIC ([17]; ATCC6, 24 H): 20 µg/mL; MIC ([17]; ATCC6, 48 H): 20 µg/mL; MIC ([18]; 24 h): 0.5 µg/mL; MIC ([18]; 48 h): 0.5 µg/mL; MIC ([19]; 24 H): 0.05 µg/mL; MIC ([19]; 48 H): 0.05 µg/mL
2 | CC(=O)OCC1=C(C(=O)O)N2C(=O)C(NC(=O)/C(=N\OCC#N)c3csc(N)n3)C2SC1 (stereo not shown) [Example 8, sodium 7-[2-(2-amino-4-thiazolyl)-2-cyano-methoxyimino-acetamido]-3-acetoxymethyl-ceph-3-eme-4-carboxylate] | 1 µg/mL | 1 µg/mL | 0.2 µg/mL | 0.2 µg/mL | 0.05 µg/mL | 3 µg/mL | 5 µg/mL | 2 µg/mL | 3 µg/mL | 10 µg/mL | > 40 µg/mL | 3 µg/mL | 20 µg/mL | 2 µg/mL | 3 µg/mL | 5 µg/mL | 5 µg/mL | 1 µg/mL | 0.05 µg/mL | 2 µg/mL | MIC ([3]; EXP.52145, 24 H, 37° C.): 0.05 µg/mL; MIC ([6]; 24 h): 0.5 µg/mL; MIC ([6]; 48 h): 0.5 µg/mL; MIC ([9]; ATCC9, 24 h): 0.5 µg/mL; MIC ([9]; ATCC9, 48 h): 0.5 µg/mL; MIC ([13]; ATCC6, 24 h): 0.5 µg/mL; MIC ([14]; A561, 48 H, 37° C.): 0.05 µg/mL; MIC ([15]; 48 H): 2 µg/mL; MIC ([16]; ATCC11, 24 H, 37° C.): 0.05 µg/mL; MIC ([16]; ATCC11, 48 H, 37° C.): 0.05 µg/mL; MIC ([17]; ATCC6, 24 H): 2 µg/mL; MIC ([17]; ATCC6, 48 H): 2 µg/mL; MIC ([18]; 24 h): 0.2 µg/mL; MIC ([18]; 48 h): 0.2 µg/mL; MIC ([19]; 24 H): 0.05 µg/mL; MIC ([19]; 48 H): 0.05 µg/mL
3 | CCOC(=O)CO/N=C(\C(=O)NC1C(=O)N2C(C(=O)O)=C(COC(C)=O)CS[C@H]12)c1csc(N)n1 (stereo partly shown) [Example 2, 7-[2-(2-amino-4-thiazolyl)-2-carbethoxymethyloxyimino-acetamido]-3-acetoxymethyl-ceph-3-eme-4-carboxylic acid] | 2 µg/mL (≈ 3.79 µM) | 2 µg/mL (≈ 3.79 µM) | 1 µg/mL (≈ 1.9 µM) | 1 µg/mL (≈ 1.9 µM) | 0.2 µg/mL (≈ 0.379 µM) | 10 µg/mL (≈ 19 µM) | 10 µg/mL (≈ 19 µM) | 3 µg/mL (≈ 5.69 µM) | 3 µg/mL (≈ 5.69 µM) | > 40 µg/mL | > 40 µg/mL | 5 µg/mL (≈ 9.48 µM) | > 40 µg/mL | 3 µg/mL (≈ 5.69 µM) | 5 µg/mL (≈ 9.48 µM) | 5 µg/mL (≈ 9.48 µM) | 5 µg/mL (≈ 9.48 µM) | 5 µg/mL (≈ 9.48 µM) | 0.05 µg/mL (≈ 0.0948 µM) | 5 µg/mL (≈ 9.48 µM) | MIC ([3]; EXP.52145, 24 h): 0.1 µg/mL (≈ 0.19 µM); MIC ([5]; 24 h): 1 µg/mL (≈ 1.9 µM); MIC ([5]; 48 h): 1 µg/mL (≈ 1.9 µM); MIC ([6]; 48 H, 37° C.): 2 µg/mL (≈ 3.79 µM); MIC ([6]; 24 h): 1 µg/mL (≈ 1.9 µM); MIC ([9]; ATCC9, 24 H, 37° C.): 2 µg/mL (≈ 3.79 µM); MIC ([9]; ATCC9, 48 H, 37° C.): 2 µg/mL (≈ 3.79 µM); MIC ([13]; ATCC6, 24 H, 37° C.): 0.5 µg/mL (≈ 0.948 µM); MIC ([14]; A561, 48 h): 0.1 µg/mL (≈ 0.19 µM); MIC ([15]; 48 H): 5 µg/mL (≈ 9.48 µM); MIC ([16]; ATCC11, 24 H, 37° C.): 0.5 µg/mL (≈ 0.948 µM); MIC ([16]; ATCC11, 48 h): 1 µg/mL (≈ 1.9 µM); MIC ([17]; ATCC6, 24 H): 3 µg/mL (≈ 5.69 µM); MIC ([17]; ATCC6, 48 H): 5 µg/mL (≈ 9.48 µM); MIC ([18]; 24 h): 1 µg/mL (≈ 1.9 µM); MIC ([18]; 48 h): 1 µg/mL (≈ 1.9 µM); MIC ([19]; 24 H): 0.2 µg/mL (≈ 0.379 µM); MIC ([19]; 48 H): 0.2 µg/mL (≈ 0.379 µM)

Reference: patent US4487937A, “2-(2-Substitutedamino-4-thiazolyl)-2-(1-methoxy-isopropoxyimino)-acetic acids” (Roussel Uclaf, priority 1977, dated 1984)
